Experimental data taken from patent publication US20070010532A1, “3-Pyridylcarboxamide derivatives as pesticidal agents” (BAYER CROPSCIENCE GMBH, priority 2003, published 2007).

How the values were obtained:
[1] = test system: black bean aphids (Aphis fabae); test: Method A: field bean plants (Vicia faba) and aphids dipped into aqueous solution of the formulated preparation; format: in vivo; settings: read-out: mortality among the aphids
Method: Germinated field bean seeds (Vicia faba) with seed roots were transferred into brown glass bottles filled with tap water and then populated with about 100 black bean aphids (Aphis fabae). Plants and aphids were then dipped into an aqueous solution of the formulated preparation to be examined for 5 seconds. After they had drained, plants and animals were stored in a climatized chamber (16 hours of light/day, 25° C., 40-60% relative atmospheric humidity). After 3 and 6 days of storage, the effect of the preparation on the aphids was determined. […]

[2] = test system: black bean aphids (Aphis fabae); test: Method B: root-systemic action, preparation pipetted into the bottle of field bean (Vicia faba) populated with aphids; format: in vivo; settings: read-out: mortality among the aphids, by root-systemic action
Method: Germinated field bean seeds (Vicia faba) with seed roots were transferred into brown glass bottles filled with tap water and then populated with about 100 black bean aphids (Aphis fabae). Plants and aphids were then dipped into an aqueous solution of the formulated preparation to be examined for 5 seconds. After they had drained, plants and animals were stored in a climatized chamber (16 hours of light/day, 25° C., 40-60% relative atmospheric humidity). After 3 and 6 days of storage, the effect of the preparation on the aphids was determined. […] Method B:
Germinated field bean seeds (Vicia faba) with seed roots were transferred into brown glass bottles filled with tap water. Four milliliters of an aqueous solution of the formulated preparation to be examined were pipetted into the brown glass bottle. The field bean was then heavily populated with about 100 black bean aphids (Aphis fabae). Plants and aphids were then stored in a climatized chamber (16 hours of light/day, 25° C., 40-60% relative atmospheric humidity). After 3 and 6 days of storage, the root-systemic effect of the preparation on the aphids was determined.

| SMILES | mortality at 300 ppm [1] [%] | mortality at 30 ppm [2] [%] |
| --- | --- | --- |
| CCC1(C)N/C(=N/C(=O)c2cnccc2C(F)(F)F)NC1=O (stereo not drawn) [Compound B-91, N-[(2Z)-4-ethyl-4-methyl-5-oxo-2-imidazolidinylidene]-4-(trifluoromethyl)nicotinamide] | 90 to 100 | 90 to 100 |
| CC1(C)N/C(=N/C(=O)c2cnccc2C(F)(F)F)N(Cc2ccc(Cl)cc2)C1=O [Compound B-529, N-[(2Z)-1-(4-chlorobenzyl)-4,4-dimethyl-5-oxo-2-imidazolidinylidene]-4-(trifluoromethyl)nicotinamide] | 90 to 100 | 90 to 100 |
| CSC1=N/C(=N\C(=O)c2cnccc2C(F)(F)F)N(C(C)=O)C1(C)C [Compound E-135, N-[(2Z)-1-acetyl-5,5-dimethyl-4-methylthio-1,5-dihydro-2H-imidazol-2-ylidene]-4-(trifluoromethyl)nicotinamide] | 90 to 100 | 90 to 100 |
